Like-named read-outs stand apart in the source and are kept apart here.
Experiments:
KDM5A = KDM5A (Homo sapiens (Human), UniProt P29375); test: Biochemical KDM5A Inhibition Assay (HTRF); details: KDM5A protein, biotin-labelled H3K4-Me3 substrate
Procedure: Biochemical KDM5A Inhibition Assay
Using 384-well white Greiner784075 (Greiner), representative compounds were characterized for their inhibition of KDM5A using HTRF® technology (Cisbio Bioassays). Briefly, the test compounds, reference compounds, and DMSO control (typical compound concentration range 1 μM-[…], final assay concentration (FAC*) of DMSO 0.5%) were added to 384-well plate by the Echo® acoustic dispensing platform (Labcyte). Five (5) 1l of KDM5A protein (produced by the method described in Nat Chem Biol 12, 531-538 (2016)). (5-20 nM FAC*) in assay buffer (50 mM MES, 50 mM NaCl, 1 mM TCEP, 0.01% v/v Tween 20, 0.03% BSA, pH 6.5) was added to wells and plates were incubated for 10-20 minutes at 25 degrees celsius. Then, 5 μl of alpha-ketoglutaric acid (100 μM FAC*), biotin-labelled H3K4-Me3 substrate (Anaspec Cat #AS-64357-1; 200 nM FAC*), Fe(II)SO4 (100 μM FAC*) and ascorbic acid (2 mM FAC*) in assay buffer was added to wells and plates were incubated for 20 minutes at room temperature. The reaction was stopped with the addition of 10 μl of anti-H3K4-Me2-Eu(K) (Cisbio Bioassays Cat #61KA2KAH; 0.75 nM FAC**)+Streptavidin XL665 (Cisbio Bioassays Cat #610SAXLB; 25 nM FAC**) in HTRF detection buffer (Cisbio Bioassays Cat #62SDBRDF). The mixture was incubated for 30 minutes at room temperature before 340 nm excitation and measurement of dual emission at 620 nm and 665 run. *FAC: final assay concentration calculated based on 10 μl of the assay buffer**FAC: final assay concentration calculated based on 20 μl of the detection buffer
The raw data (a 665 nm and a 620 nm reading from each well) for individual assay plates were analyzed. The ratio of emissions was calculated using the following calculation: Ratio=(665 nm emission/620 nm emission)×10000. […] Compound IC50 values were calculated from graphs of % inhibition plotted against compound concentration, using a four parameter curve fit. [Results]

[1] = Metabolic Stability in Human Liver Microsomes; assay type: in vitro ADME
Procedure: Metabolic Stability in Human Liver Microsomes
Human liver microsome (BD Gentest Corporation, Cat No. #452161) incubations were conducted in duplicate in 96-well plates. Each well contains 40 μL of 0.1 M potassium phosphate buffer (pH 7.4), 4.125 mM MgCl2, 0.625 mg/mL liver microsomes, and test compound (1.25 μM). After 5-min preincubation at 37° C., 10 uL of 5.0 mM NADPH in 0.1M potassium phosphate buffer was added to initiate the enzymatic reaction. The final component concentrations are 0.1M potassium phosphate buffer (pH 7.4), 1.0 mM NADPH, 3.3 mM MgCl2, 0.5 mg/mL liver microsomes, and test compound (1.0 μM). Reactions were terminated at 0 and 60 min by adding 200 μL of ice-cold acetonitrile containing internal standard.
LC-MS/MS analysis was conducted as specified below.
The remaining at 60 min (%) of test compound was calculated from the peak area ratio (test compound/internal standard) of samples collected 0 and 60 min after the start of the reaction according to the formula described below. Remaining at 60 min (%)=peak area ratio of sample collected at 60 min/peak area ratio of sample collected at 0 min×100 [Results]

[2] = Brain Concentration in Mice; assay type: in vivo; details: mouse, mice (C57BL/6), read-out: Unbound-Brain Concentration at 2 h at 1 mg/kg
Procedure: Brain Concentration in Mice
Test compounds were orally administered to mice (C57BL/6) at 1 or 3 mg/kg. Brain samples were collected 2 h after the administration and homogenized with 3-fold volumes of distilled water.
LC-MS/MS analysis was conducted as specified below. Standard calibration samples were prepared using the same matrix and analyzed in the same manner.
Standard calibration samples were analyzed to calculate a regression equation from the peak area ratio (test compound/internal standard). The peak area ratio was determined for a measurement sample and assigned to the regression equation to calculate an assay value.

[3] = 0.5 mg/mL liver microsomes, 1.0 μM test compound, 1.0 mM NADPH, 37° C., 60 min
[4] = po, orally administered, 1 mg/kg, brain 2 h after administration
[5] = human, microsomes, 1 h, 1 μM, pH 7.4

KDM5A, sequence (P29375 whole entry): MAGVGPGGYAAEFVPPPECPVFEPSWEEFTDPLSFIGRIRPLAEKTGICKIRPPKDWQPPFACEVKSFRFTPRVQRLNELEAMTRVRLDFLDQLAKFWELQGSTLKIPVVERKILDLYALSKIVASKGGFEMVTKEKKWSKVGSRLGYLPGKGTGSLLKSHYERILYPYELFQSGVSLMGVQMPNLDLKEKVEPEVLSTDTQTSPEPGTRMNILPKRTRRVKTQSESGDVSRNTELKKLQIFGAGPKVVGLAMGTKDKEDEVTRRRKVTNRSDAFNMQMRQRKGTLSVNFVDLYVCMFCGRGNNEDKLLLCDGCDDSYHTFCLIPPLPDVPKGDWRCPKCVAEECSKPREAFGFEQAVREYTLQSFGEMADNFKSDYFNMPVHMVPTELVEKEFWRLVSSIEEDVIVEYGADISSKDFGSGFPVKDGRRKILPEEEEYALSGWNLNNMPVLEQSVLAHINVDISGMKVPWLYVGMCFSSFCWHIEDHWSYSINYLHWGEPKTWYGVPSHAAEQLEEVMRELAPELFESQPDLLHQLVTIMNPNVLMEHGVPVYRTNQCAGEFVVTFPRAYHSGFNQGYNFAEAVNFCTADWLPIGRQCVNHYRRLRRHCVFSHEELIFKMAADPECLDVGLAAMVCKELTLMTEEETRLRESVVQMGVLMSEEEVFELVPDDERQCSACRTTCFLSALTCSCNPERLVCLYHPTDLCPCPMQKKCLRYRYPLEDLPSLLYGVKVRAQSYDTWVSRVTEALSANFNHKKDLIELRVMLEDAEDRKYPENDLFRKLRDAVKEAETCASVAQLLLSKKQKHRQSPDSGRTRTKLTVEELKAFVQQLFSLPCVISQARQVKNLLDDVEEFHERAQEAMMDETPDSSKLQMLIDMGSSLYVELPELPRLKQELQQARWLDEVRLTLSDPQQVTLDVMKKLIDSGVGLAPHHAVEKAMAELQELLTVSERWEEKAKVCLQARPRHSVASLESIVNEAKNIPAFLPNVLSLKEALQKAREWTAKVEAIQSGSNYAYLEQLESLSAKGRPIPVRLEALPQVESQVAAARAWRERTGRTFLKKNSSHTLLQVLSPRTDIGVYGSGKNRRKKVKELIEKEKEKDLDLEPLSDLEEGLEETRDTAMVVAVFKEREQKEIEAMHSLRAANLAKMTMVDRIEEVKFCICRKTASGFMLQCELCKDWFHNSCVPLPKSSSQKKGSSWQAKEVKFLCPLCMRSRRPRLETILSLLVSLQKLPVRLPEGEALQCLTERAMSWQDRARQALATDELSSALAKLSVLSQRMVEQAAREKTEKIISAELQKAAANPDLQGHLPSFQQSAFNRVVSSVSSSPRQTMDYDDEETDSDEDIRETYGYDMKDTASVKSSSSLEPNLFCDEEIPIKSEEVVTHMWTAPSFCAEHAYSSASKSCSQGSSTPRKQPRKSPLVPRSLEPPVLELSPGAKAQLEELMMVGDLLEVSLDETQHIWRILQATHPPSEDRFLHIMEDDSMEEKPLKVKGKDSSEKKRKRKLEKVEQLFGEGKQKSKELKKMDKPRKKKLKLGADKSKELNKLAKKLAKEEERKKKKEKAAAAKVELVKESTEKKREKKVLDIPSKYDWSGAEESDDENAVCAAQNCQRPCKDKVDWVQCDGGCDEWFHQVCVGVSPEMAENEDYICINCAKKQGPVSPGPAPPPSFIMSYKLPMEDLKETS

Structure (SMILES) | IC50 (KDM5A) [nM] | Metabolic stability in human liver microsomes (% remaining at 60 min) [1, 5] [%] | concentration at 2 h ([2]; brain, oral, 2 h, values with * obtained by proportional calculation from the 3 mg/kg data) [ng/g] | Metabolic stability in human liver microsomes (% remaining at 60 min) [1, 3] [%] | concentration at 2 h [2, 4] [ng/g]
O=C(c1cn(C2CC2)cn1)N1C[C@@H]2[C@H](C1)[C@H]2C1=NOC2(CC2)C1 [Example 51, (1-cyclopropyl-1H-imidazol-4-yl)[(1R,5S,6r)-6-(4-oxa-5-azaspiro[2.4]hept-5-en-6-yl)-3-azabicyclo[3.1.0]hex-3-yl]methanone] | 20 |  |  | 95 | 55.3
CC1(C)CC([C@@]2(C)[C@@H]3CN(C(=O)c4cn(C5CC5)cn4)C[C@@H]32)=NO1 [Example 82, (1-cyclopropyl-1H-imidazol-4-yl)[(1R,5S,6r)-6-(5,5-dimethyl-4,5-dihydro-1,2-oxazol-3-yl)-6-methyl-3-azabicyclo[3.1.0]hex-3-yl]methanone] | 30 | 104 |  |  | 57.4
C[C@]1(C2=NOC3(CC3)C2)[C@@H]2CN(C(=O)c3cn(C4CC4)cn3)C[C@@H]21 [Example 85, (1-cyclopropyl-1H-imidazol-4-yl)[(1R,5S,6r)-6-methyl-6-(4-oxa-5-azaspiro[2.4]hept-5-en-6-yl)-3-azabicyclo[3.1.0]hex-3-yl]methanone] | 20 |  |  | 98 | 76.7

Second part, led by results:

IC50 (KDM5A) [nM] | Metabolic stability in human liver microsomes (% remaining at 60 min) [1, 5] [%] | concentration at 2 h ([2]; brain, oral, 2 h, values with * obtained by proportional calculation from the 3 mg/kg data) [ng/g] | Structure (SMILES) | Metabolic stability in human liver microsomes (% remaining at 60 min) [1, 3] [%] | concentration at 2 h [2, 4] [ng/g]
60 | 100 |  | CC(C)n1cnc(C(=O)N2C[C@@H]3[C@H](C2)[C@@]3(C)C2=NOC(C)(C)C2)c1 [Example 81, [(1R,5S,6r)-6-(5,5-dimethyl-4,5-dihydro-1,2-oxazol-3-yl)-6-methyl-3-azabicyclo[3.1.0]hex-3-yl](1-isopropyl-1H-imidazol-4-yl)methanone] |  | 21.9
70 | 95 | 39.5 | CC(C)c1cc(C(=O)N2C[C@@H]3[C@H](C2)[C@H]3C2=NOC(C)(C)C2)n[nH]1 [Example 88, [(1R,5S,6r)-6-(5,5-dimethyl-4,5-dihydro-1,2-oxazol-3-yl)-3-azabicyclo[3.1.0]hex-3-yl](5-isopropyl-1H-pyrazol-3-yl)methanone] |  | 

— patent publication US11691968B2, “Compound having KDM5 inhibitory activity and pharmaceutical use thereof” (ONO PHARMACEUTICAL CO., LTD., priority 2020, dated 2023)
